Reference: US20090053721A1, “VOLTAGE-GATED ION CHANNEL MUTANTS FOR USE IN IDENTIFYING ION CHANNEL MODULATING COMPOUNDS” (CARDIOME PHARMA CORP., priority 2007, published 2009)
Where “and” joins values, the source holds several entries; their conditions need not be identical. Identical values can stand only once. Counter-ions that a name gives are not always drawn.

Key:
Kv1.5 WT channel = target: T1, Kv1.5 WT channel (Homo sapiens, UniProt P22460); experiment: Whole-cell patch-clamp block of wild-type Kv1.5 current in HEK293 cells; type: cell-based
T1 construct: subcloned as a fragment back into full-length Kv1.5; expressed in transfected cells
Description: Stable lines of HEK293 cells expressing Kv1.5, or transient transfection of mutant Kv1.5 channels were used in all experiments. Primers to generate mutant channels were synthesized by Integrated DNA Technologies, Inc. (Coralville, Iowa, USA), and mutants were generated using the Stratagene Quikchange kit (Stratagene, Calif., USA). The presence of the mutation was confirmed by DNA sequencing, and because of the size of the WT Kv1.5 clone, only the sequenced region harboring the targeted nucleotides was subcloned as a fragment back into full-length Kv1.5. Transient transfections were performed with HEK 293 cells plated at 20-30% confluency on sterile coverslips in 25 mm Petri dishes one day prior to transfection. 0.1-4 μg of ion channel DNA was incubated with 1 μg of eGFP DNA (to enable detection of transfected cells) and 2 μl of lipofectamine 2000 (Invitrogen) in 100 μl of Opti-MEM. This was added to the cells for overnight incubation after washing the media with 900 μl of MEM with 10% FBS.
The cells were grown in Minimal Essential Medium (MEM) at 37° C. in an air/5% CO2 incubator. Media contained 10% bovine serum and 0.5 mg/ml geneticin for stable lines. On the day before recording, stably-expressing cells were washed with MEM, treated with trypsin/EGTA for one minute and plated on 25 mm^2 coverslips. All cell culture supplies were obtained from Invitrogen (Mississauga, ON, Canada).
Control bath solution contained (in mM): 5 KCl, 135 NaCl, 2.8 sodium acetate, 1 MgCl2, 10 HEPES and 1 CaCl2, adjusted to pH 7.4 with NaOH. Patch pipettes contained (in mM): 130 KCl, 5 EGTA, 1 MgCl2, 10 HEPES, 4 Na2ATP, and 0.1 GTP, adjusted to pH 7.2 with KOH. All chemicals used to make solutions were obtained from Sigma-Aldrich (Mississauga, ON, Canada). […] Flecamide (Sigma-Aldrich, lot number 094K4057) was prepared as a stock solution (100 mM) in 100% DMSO. DMSO concentrations for either drug never exceeded 0.1% v/v in the final experimental solutions.
Coverslips with adherent cells plated on the surface were placed in a superfusion chamber (volume 300 μl) containing the control bath solution at 22° C. Whole-cell current recording and analysis were carried out using an Axopatch 200B amplifier and pClamp10 software (Axon Instruments, CA, USA). Patch electrodes were pulled from thin-walled borosilicate glass (World Precision Instruments, FL, USA) on a horizontal micropipette puller (Sutter Instruments, CA, USA). […] Analogue capacity compensation and 80% series resistance compensation were used during whole cell measurements. […] To assess drug block, half-log escalating concentrations of drug were added to the flowing bath solution and current traces were recorded with 400 ms depolarizing pulses to +60 mV at a frequency of 0.1 Hz. […]

[1] = target: T2, Kv1.5 T479S mutant channel (Homo sapiens, UniProt P22460, T479S); experiment: Whole-cell patch-clamp block of mutant Kv1.5 current in HEK293 cells; type: cell-based
T2 construct: subcloned as a fragment back into full-length Kv1.5; expressed in transfected cells; host or cells: HEK293, transient transfection
Description: (§1) Stable lines of HEK293 cells expressing Kv1.5, or transient transfection of mutant Kv1.5 channels were used in all experiments. […] (Coralville, Iowa, USA), and mutants were generated using the Stratagene Quikchange kit (Stratagene, Calif., USA). […] This was added to the cells for overnight incubation after washing the media with 900 μl of MEM with 10% FBS. […] Media contained 10% bovine serum and 0.5 mg/ml geneticin for stable lines. On the day before recording, stably-expressing cells were washed with MEM, treated with trypsin/EGTA for one minute and plated on 25 mm^2 coverslips. All cell culture supplies were obtained from Invitrogen (Mississauga, ON, Canada). Control bath solution contained (in mM): 5 KCl, 135 NaCl, 2.8 sodium acetate, 1 MgCl2, 10 HEPES and 1 CaCl2, adjusted to pH 7.4 with NaOH. Patch pipettes contained (in mM): 130 KCl, 5 EGTA, 1 MgCl2, 10 HEPES, 4 Na2ATP, and 0.1 GTP, adjusted to pH 7.2 with KOH. All chemicals used to make solutions were obtained from Sigma-Aldrich (Mississauga, ON, Canada). […] (Vancouver, BC, Canada) and prepared as a stock solution (50 mM) in H2O. […] DMSO concentrations for either drug never exceeded 0.1% v/v in the final experimental solutions. Coverslips with adherent cells plated on the surface were placed in a superfusion chamber (volume 300 μl) containing the control bath solution at 22° C. Whole-cell current recording and analysis were carried out using an Axopatch 200B amplifier and pClamp10 software (Axon Instruments, CA, USA). Patch electrodes were pulled from thin-walled borosilicate glass (World Precision Instruments, FL, USA) on a horizontal micropipette puller (Sutter Instruments, CA, USA). […] Analogue capacity compensation and 80% series resistance compensation were used during whole cell measurements. Membrane potentials were not corrected for junction potentials that arise between the pipette and bath solution. […] Data were sampled at 10-20 kHz and filtered at 5 to 10 kHz. […] Data are represented as mean±SE unless otherwise specified. For significance of differences, * represents p<0.05, ** p<0.01; statistical analysis was conducted using Student's t-test (unpaired). Clampfit software (Axon Instruments, CA, USA) was used to analyze current traces. Data from each test pulse (currents in the presence of drug) were normalized to control test pulse currents obtained before drug exposure. […] IC50 is the concentration producing half-maximal inhibition; and n is the Hill coefficient.

[2] = target: T3, Kv1.5 T480A mutant channel (Homo sapiens, UniProt P22460, T480A); experiment: as above; type: cell-based
T3 construct: subcloned as a fragment back into full-length Kv1.5; expressed in transfected cells; host or cells: HEK293, transient transfection
Description: as §1

[3] = target: T4, Kv1.5 V505L mutant channel (Homo sapiens, UniProt P22460, V505L); experiment: as above; type: cell-based
T4 construct: subcloned as a fragment back into full-length Kv1.5; expressed in transfected cells; host or cells: HEK293, transient transfection
Description: as §1

IKs (KvLQT1) = IKs (KvLQT1) (Homo sapiens, UniProt P51787); experiment: Sensitivity of IKs channel to vernakalant (unpublished data)
atrial fibrillation = details: intravenous; within 90 min of infusion; phase II and III trials; cited from earlier work

T1 sequence (P22460 whole entry, the tested form may be a part): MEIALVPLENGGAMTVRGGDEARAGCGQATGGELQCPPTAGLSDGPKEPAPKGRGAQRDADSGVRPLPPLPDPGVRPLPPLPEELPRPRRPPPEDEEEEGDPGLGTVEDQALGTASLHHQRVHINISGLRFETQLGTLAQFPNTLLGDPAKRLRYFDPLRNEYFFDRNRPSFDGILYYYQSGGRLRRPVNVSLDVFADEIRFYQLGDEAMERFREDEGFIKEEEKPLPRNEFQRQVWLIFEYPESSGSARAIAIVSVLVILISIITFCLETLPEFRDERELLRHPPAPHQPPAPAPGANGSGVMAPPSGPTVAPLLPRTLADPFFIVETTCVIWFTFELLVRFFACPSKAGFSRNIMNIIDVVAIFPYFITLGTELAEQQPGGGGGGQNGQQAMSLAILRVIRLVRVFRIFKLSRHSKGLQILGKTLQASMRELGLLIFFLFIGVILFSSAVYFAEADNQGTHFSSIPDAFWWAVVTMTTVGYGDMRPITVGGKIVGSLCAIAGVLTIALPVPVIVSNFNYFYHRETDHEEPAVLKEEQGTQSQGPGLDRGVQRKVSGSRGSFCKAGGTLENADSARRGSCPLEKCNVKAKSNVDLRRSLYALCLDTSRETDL
T3 sequence (P22460 whole entry T480A, the tested form may be a part): as the sequence (P22460 whole entry, the tested form may be a part) above, with T480A counted along it
T4 sequence (P22460 whole entry V505L, the tested form may be a part): as the sequence (P22460 whole entry, the tested form may be a part) above, with V505L counted along it
T2 sequence (P22460 whole entry T479S, the tested form may be a part): as the sequence (P22460 whole entry, the tested form may be a part) above, with T479S counted along it
IKs (KvLQT1), sequence (P51787 whole entry, the tested form may be a part): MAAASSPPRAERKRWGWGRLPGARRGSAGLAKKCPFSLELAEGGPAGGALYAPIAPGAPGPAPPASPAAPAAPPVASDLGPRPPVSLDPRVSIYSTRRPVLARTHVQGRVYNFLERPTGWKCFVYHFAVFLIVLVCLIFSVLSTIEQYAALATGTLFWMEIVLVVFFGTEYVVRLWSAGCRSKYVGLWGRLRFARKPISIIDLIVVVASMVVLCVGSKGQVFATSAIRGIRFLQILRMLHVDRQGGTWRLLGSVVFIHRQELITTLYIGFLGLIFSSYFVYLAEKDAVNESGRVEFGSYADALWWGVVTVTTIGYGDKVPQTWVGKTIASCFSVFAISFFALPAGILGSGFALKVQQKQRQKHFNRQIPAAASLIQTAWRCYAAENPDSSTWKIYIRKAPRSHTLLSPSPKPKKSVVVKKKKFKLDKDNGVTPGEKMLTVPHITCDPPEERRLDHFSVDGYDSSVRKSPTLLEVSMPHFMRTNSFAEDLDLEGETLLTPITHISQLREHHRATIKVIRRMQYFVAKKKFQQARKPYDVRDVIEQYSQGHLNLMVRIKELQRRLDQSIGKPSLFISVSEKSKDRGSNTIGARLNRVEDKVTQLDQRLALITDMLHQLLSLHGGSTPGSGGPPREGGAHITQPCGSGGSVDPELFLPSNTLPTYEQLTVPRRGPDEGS

Row | SMILES | Hill coefficient (Kv1.5 WT channel) | reduction of outward current (Kv1.5 WT channel; 10 μM vernakalant) | Fractional Block ± SEM (Kv1.5 WT channel; 10 μM vernakalant, −80 to +60 mV, 400 ms, 0.1 Hz) | Hill coefficient [1] | Fractional Block ± SEM ([1]; 10 μM vernakalant) | Hill coefficient [2] | Fractional Block ± SEM ([2]; 10 μM vernakalant) | Hill coefficient [3] | Fractional Block ± SEM ([3]; 10 μM vernakalant) | sensitivity of IKs channel to drug (IKs (KvLQT1)) | overall rate of conversion of AF to sinus rhythm (atrial fibrillation) [%] | IC50 (Kv1.5 WT channel; steady-state current, +60 mV)
1 | COc1ccc(CCO[C@@H]2CCCC[C@H]2N2CC[C@@H](O)C2)cc1OC [Vernakalant, 3-Pyrrolidinol, 1-[(1R,2R)-2-[2-(3,4-dimethoxyphenyl)ethoxy]cyclohexyl]-,hydrochloride, (3R)] | 1.00 | approximately 50% | 0.45 ± 0.03 | 0.95 | 0.23 ± 0.04 | 0.88 | 0.23 ± 0.04 | 0.77 | 0.22 ± 0.07 | not sensitive | ~52 | –
2 | O=C(NCC1CCCCN1)c1cc(OCC(F)(F)F)ccc1OCC(F)(F)F (stereo not drawn) [Flecainide] | – | – | – | – | – | – | – | – | – | – | – | 38.1 µM and 38 µM
